Test results taken from PubChem BioAssay (NCI).
“And” between values parts separate entries of the source, which are not always exact repeats. Identical values can stand only once.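 Step 1: Grow cells in 96-well plates. Step 2: Expose to compound for 48 hours at 5 concentrations. Step 3: Interpolate endpoints linearly; if unreached, use highest concentration. GI50: concentration for 50% inhibition of growth. The concentration for full growth arrest is given as TGI.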

Legend:
Assay in all cases: NCI-60 cell line screen, 48 h
786-0 renal = tested on: 786-0 renal
HCT-15 colon = tested on: HCT-15 colon
HL-60(TB) leukemia = tested on: HL-60(TB) leukemia
MCF7 breast = tested on: MCF7 breast
CCRF-CEM leukemia = tested on: CCRF-CEM leukemia
HT29 colon = tested on: HT29 colon
A549 NSCLC = tested on: A549 NSCLC
SK-MEL-5 melanoma = tested on: SK-MEL-5 melanoma
SNB-75 CNS = tested on: SNB-75 CNS
UACC-257 melanoma = tested on: UACC-257 melanoma

Structure (SMILES) | GI50 (786-0 renal) [µM] | TGI (786-0 renal) [µM] | GI50 (HCT-15 colon) [µM] | TGI (HCT-15 colon) [µM] | GI50 (HL-60(TB) leukemia) | TGI (HL-60(TB) leukemia) | GI50 (MCF7 breast) [µM] | TGI (MCF7 breast) [µM] | GI50 (CCRF-CEM leukemia) [µM] | TGI (CCRF-CEM leukemia) | GI50 (HT29 colon) [µM] | TGI (HT29 colon) [µM] | GI50 (A549 NSCLC) [µM] | TGI (A549 NSCLC) [µM] | GI50 (SK-MEL-5 melanoma) [µM] | TGI (SK-MEL-5 melanoma) [µM] | GI50 (SNB-75 CNS) | TGI (SNB-75 CNS) [µM] | GI50 (UACC-257 melanoma) [µM] | TGI (UACC-257 melanoma) [µM]
COc1ccc(-c2c(N)n[nH]c2-c2cc(OC)c(OC)c(OC)c2)cc1 | 0.388 | 35.6 | 0.285 | > 100 | 0.0474 µM | 0.516 µM | 0.0732 | > 100 | 0.238 | > 100 µM | 0.247 | 3.29 | 0.147 | > 100 | 0.113 | 10 | 0.216 µM | > 100 | 23.6 | > 100
CN(C)CCNc1nc2ccccc2c2c(=O)c3ccccc3sc12 | 1.49 | 2.98 | 1.97 | 4.85 | 1.82 µM | 4.21 µM | 1.37 | 3.05 | 1.92 | 4.31 µM | 1.8 | 4.81 | 1.81 | 3.96 | 1.58 | 3 | 1.74 µM | 6.94 | 1.76 | 3.53
O=C1c2ccccc2-c2c1c1ccccc1c(=O)n2-c1ccccc1 | – | 10.6 | – | > 100 | – | > 86.3 µM | – | > 100 | – | > 100 µM | – | > 100 | – | > 100 | – | 52 | – | 37.1 | – | > 100
CCCn1c(N)c(C(=O)CNc2ccc(I)cc2)c(=O)[nH]c1=O | 4.21 | > 100 | 0.264 | > 100 | 10.5 µM | > 100 µM | 0.806 | > 100 | 0.543 | > 100 µM | 1.23 | > 100 | 2.1 | > 100 | 0.861 | > 100 | 2.12 µM | > 40.1 | – | > 100
CC(C)(C)C(=O)OCc1nc2cc3c(cc2c(=O)[nH]1)CCC3=O | > 100 | > 100 | > 100 | > 100 | > 100 µM | > 100 µM | > 100 | > 100 | > 100 | > 100 µM | > 100 | > 100 | > 100 | > 100 | > 100 | > 100 | > 100 µM | > 100 | > 100 | > 100
Cc1c(C(=O)O[C@H]2[C@@H]3[C@H](C)CC[C@H]3[C@]3(C)O[C@@]2(C2CCCCC2)C[C@H]3OC(=O)CO)ccc2ccccc12 | 6.52 | 13.1 | 7.86 | 15.2 | 9.3 µM | 20 µM | 7.38 | 15.9 | 9.13 | 20.9 µM | 7.07 | 14.2 | 7.11 | 13.7 | 7.28 | 13.8 | 2.98 µM | 11 | 7.83 | 14.8
Cc1sc2ncn(Cc3ccc(Cl)c(Cl)c3)c(=O)c2c1C | 34.2 | > 100 | 19.4 | > 100 | > 100 µM | > 100 µM | 25.6 | > 100 | 27.7 | > 100 µM | 77.7 | > 100 | 31.3 | > 100 | 54.4 | > 100 | 29.3 µM | > 100 | 78.8 | > 100
Cc1cc(O)cc2c1c(=O)c1ccccc1n2C | – | > 100 | – | > 100 | – | > 100 µM | – | > 100 | – | > 100 µM | – | > 100 | – | > 100 | – | > 100 | – | > 100 | – | > 100
COc1cc(C2c3cc4c(cc3[C@@H](Nc3ccc(N)cc3)C3COC(=O)[C@H]23)OCO4)cc(OC)c1O (stereo partly drawn) | 0.514 | 4.43 | – | 22.6 | 0.287 µM and 0.422 µM | 0.862 µM and 5.63 µM | – | 12.3 | 0.271 | 0.953 µM and 5.61 µM | – | 54 | 0.317 | 3.46 | 0.701 | 7.09 | 0.347 µM | – | – | 28
O=C(Nc1cccc(C(F)(F)F)c1)c1cc(Br)cc(Br)c1O | – | > 10 | – | > 10 | – | 5 µM | – | > 10 | – | > 10 µM | – | > 10 | – | 9.56 | – | 3.58 | – | > 10 | – | 6.93
Cc1ncc([N+](=O)[O-])n1CCNC(=O)CCCCCn1ccnc1[N+](=O)[O-] | – | > 100 | – | > 100 | – | > 100 µM | – | > 100 | – | > 100 µM | – | > 100 | – | > 100 | – | > 100 | – | > 100 | – | > 100
CCCCCCNC(=O)Oc1ccc(/C(=C(\C)c2ccccc2)c2ccc(OCCN(CC)CC)cc2)cc1 | 1.5 | 5.33 | 1.31 | 3.68 | 0.524 µM | 5.2 µM | 0.602 | 5.47 | 2.22 | 11.6 µM | 1.17 | 2.9 | 5.11 | 11.4 | 3.01 | 9.26 | 3.54 µM | 10.5 | 1.21 | 3.17
C#CCN(Cc1nc2cc(C(F)(F)F)ccc2nc1-c1ccccc1)c1ccc(F)c(F)c1 | > 100 | > 100 | 37.4 | > 100 | 39 µM | > 100 µM | 26 | > 100 | 24 | > 100 µM | 41.1 | > 100 | 19.8 | 82.1 | 19.1 | 46.2 | > 100 µM | > 100 | 40.5 | 64.9
Cc1ccc2c(c1)C(=O)c1c-2n(CCCN=[N+]=[N-])c(=O)c2cc([N+](=O)[O-])ccc12 | 29.8 | > 100 | > 100 | > 100 | 22 µM | > 100 µM | 50.1 | > 100 | 31.7 | > 100 µM | 14.7 | > 100 | 97.8 | > 100 | 97.6 | > 100 | 1.26 µM | 58.6 | > 100 | > 100
O=c1c2c3c(sc2n2c(-c4ccc(Br)cc4)nnc2n1Cc1ccccc1)CCCC3 | 3.96 | 14.6 | 4.39 | 17.8 | 14.1 µM | 77.5 µM | 10.6 | 23.2 | 2.98 | 29.2 µM | 20.6 | 58.7 | 12.4 | 24.8 | 3.8 | 14.3 | 7.99 µM | 22.1 | – | 11.9
CN1CCN(CCOc2ccc(-c3cnc4c(-c5ccc(F)cc5)cnn4c3)cc2)CC1 | 1.73 | 3.2 | 1.32 | 2.75 | 2.09 µM | 4.47 µM | 1.48 | 3.05 | 1.55 | 3.82 µM | 1.65 | 4.28 | 1.71 | 3.45 | 1.64 | 3.04 | 1.34 µM | 3.32 | 2.11 | 4.42
CCOc1cc(C(C)(C)C)ccc1C1=N[C@@](C)(c2ccc(Cl)cc2)[C@@](C)(c2ccc(Cl)cc2)N1C(=O)N1CCN(CCS(C)(=O)=O)CC1 | 4 | 14.5 | 2.27 | 5.79 | 2.21 µM | 5.22 µM | 0.606 | 3.75 | 2.6 | 7.45 µM | 2.29 | 4.74 | 0.975 | 5.31 | 1.38 | 2.73 | 2.51 µM | 14.9 | 1.1 | 3.72
CCOC(=O)c1ccccc1-c1c2ccc(=[N+](C)C)cc-2oc2cc(N(C)C)ccc12 | 0.94 | > 36.5 | 2.96 | > 37.2 | 0.229 µM | 1.08 µM | 0.101 | 19.4 | 0.42 | > 45.9 µM | 0.211 | – | 0.256 | > 38.7 | 0.205 | 0.632 | 0.196 µM | 11 | 0.198 | 7.58
COc1ccc(NC(=O)/C=C(C)/C=C/C=C(C)\C=C\C2=C(C)CCCC2(C)C)cc1 | 90.3 | > 100 | > 100 | > 100 | 2.13 µM | 16.1 µM | 40.3 | > 100 | 48 | > 100 µM | 41.2 | > 100 | 87.9 | > 100 | 40.9 | > 100 | 2.15 µM | > 100 | 14.1 | > 100
C=CCCC(=O)N1C=CC(=O)[C@H](O)[C@@H]1/C=C/c1ccccc1 | 9.84 | > 32.5 | 2.39 | > 32.5 | 4.35 µM | 28 µM | 6.55 | > 32.5 | 5.61 | > 32.5 µM | 14.4 | > 32.5 | 18.2 | > 32.5 | 3.93 | 12.3 | 27.4 µM | > 32.5 | 18 | > 32.5
N=C(N)SCCc1ccccn1 | – | > 100 | – | > 100 | – | > 100 µM | – | > 100 | – | > 100 µM | – | > 100 | – | > 100 | – | > 100 | 39.7 µM and > 100 µM | > 100 | – | > 100
